Source: patent EP3807270B1, “NOVEL HETEROARYL HETEROCYCLYL COMPOUNDS FOR THE TREATMENT OF AUTOIMMUNE DISEASE” (F. Hoffmann-La Roche AG, priority 2018, dated 2019)
pIC50: −log10 of the molar value.

What was measured:
[1] = biological target: T1, human TLR8 (Homo sapiens, UniProt Q9NR97); assay: HEK293-Blue-hTLR-8 cells assay (SEAP reporter, R848 stimulation); format: cell-based; details: HEK293-Blue-hTLR8 cells, R848, 20 hrs; read-out: HEK/hTLR8 IC50
T1 construct: host or cells: HEK293 (HEK-Blue)
T1 sequence (Q9NR97 27-1041): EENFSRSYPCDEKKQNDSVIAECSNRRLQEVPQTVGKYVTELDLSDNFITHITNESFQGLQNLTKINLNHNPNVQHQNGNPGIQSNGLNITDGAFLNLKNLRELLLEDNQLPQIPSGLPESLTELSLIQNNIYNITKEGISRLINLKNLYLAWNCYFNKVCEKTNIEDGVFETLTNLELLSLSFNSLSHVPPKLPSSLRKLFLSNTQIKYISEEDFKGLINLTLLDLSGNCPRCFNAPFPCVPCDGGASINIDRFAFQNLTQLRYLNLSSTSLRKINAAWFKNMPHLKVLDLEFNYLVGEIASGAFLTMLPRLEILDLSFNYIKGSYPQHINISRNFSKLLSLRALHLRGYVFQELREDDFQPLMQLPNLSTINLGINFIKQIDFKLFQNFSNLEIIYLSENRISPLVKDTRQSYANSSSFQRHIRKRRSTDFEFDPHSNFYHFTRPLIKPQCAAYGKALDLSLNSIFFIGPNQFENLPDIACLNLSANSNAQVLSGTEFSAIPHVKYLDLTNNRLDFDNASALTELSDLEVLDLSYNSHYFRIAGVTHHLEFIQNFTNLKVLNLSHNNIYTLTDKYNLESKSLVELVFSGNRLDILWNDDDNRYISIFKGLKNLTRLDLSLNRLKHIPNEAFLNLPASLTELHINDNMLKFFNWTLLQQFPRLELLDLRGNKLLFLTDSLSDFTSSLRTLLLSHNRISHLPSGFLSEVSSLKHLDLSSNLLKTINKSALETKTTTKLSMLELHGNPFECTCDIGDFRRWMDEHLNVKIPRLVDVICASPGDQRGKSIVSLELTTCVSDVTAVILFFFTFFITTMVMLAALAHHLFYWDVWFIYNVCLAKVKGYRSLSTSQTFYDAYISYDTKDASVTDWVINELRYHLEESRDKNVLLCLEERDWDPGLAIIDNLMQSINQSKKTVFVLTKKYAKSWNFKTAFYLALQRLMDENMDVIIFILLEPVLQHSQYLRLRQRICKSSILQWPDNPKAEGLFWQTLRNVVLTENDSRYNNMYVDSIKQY
Description: A stable HEK293-Blue-hTLR-8 cell line was purchased from InvivoGen (Cat.#: hkb-htlr8, San Diego, California, USA). These cells were originally designed for studying the stimulation of human TLR8 by monitoring the activation of NF-κB. A SEAP (secreted embryonic alkaline phosphatase) reporter gene was placed under the control of the IFN-β minimal promoter fused to five NF-κB and AP-1-binding sites. The SEAP was induced by activating NF-κB and AP-1 via stimulating HEK-Blue hTLR8 cells with TLR8 ligands. Therefore, the reporter expression was declined by TLR8 antagonist under the stimulation of a ligand, such as R848, for incubation of 20 hrs. The cell culture supernatant SEAP reporter activity was determined using QUANTI-Blue™ kit (Cat.#: rep-qb1, Invivogen, San Diego, Ca, USA) at a wavelength of 640 nm, a detection medium that turns purple or blue in the presence of alkaline phosphatase.
HEK293-Blue-hTLR8 cells were incubated at a density of 250,000-450,000 cells/mL in a volume of 170 µL in a 96-well plate in Dulbecco's Modified Eagle's medium (DMEM) containing 4.5 g/L glucose, 50 U/mL penicillin, […], […], 2 mM L-glutamine, 10% (v/v) heat-inactivated fetal bovine serum with addition of 20 µL test compound in a serial dilution in the presence of final DMSO at 1% and 10 µL of 60uM R848 in above DMEM, perform incubation under 37 °C in a CO2 incubator for 20 hrs. Then 20 µL of the supernatant from each well was incubated with 180 µL Quanti-blue substrate solution at 37°C for 2 hrs and the absorbance was read at 620-655 nm using a spectrophotometer. The signaling pathway that TLR8 activation leads to downstream NF-κB activation has been widely accepted, and therefore similar reporter assay was modified for evaluating TLR8 antagonist.

[2] = biological target: T2, CYP2D6 (Homo sapiens, UniProt P10635); assay: CYP inhibition assay in human liver microsome; format: in vitro ADME; details: human liver microsomes, probe dextromethorphan, 10µM test compound, dextromethorphan substrate, <0: not or weak inhibitor, read-out: CYP 2D6 inhibition %@10µM
T2 construct: tissue BD-Gentest 452117; host or cells: human liver microsomes
T2 sequence (P10635 whole entry): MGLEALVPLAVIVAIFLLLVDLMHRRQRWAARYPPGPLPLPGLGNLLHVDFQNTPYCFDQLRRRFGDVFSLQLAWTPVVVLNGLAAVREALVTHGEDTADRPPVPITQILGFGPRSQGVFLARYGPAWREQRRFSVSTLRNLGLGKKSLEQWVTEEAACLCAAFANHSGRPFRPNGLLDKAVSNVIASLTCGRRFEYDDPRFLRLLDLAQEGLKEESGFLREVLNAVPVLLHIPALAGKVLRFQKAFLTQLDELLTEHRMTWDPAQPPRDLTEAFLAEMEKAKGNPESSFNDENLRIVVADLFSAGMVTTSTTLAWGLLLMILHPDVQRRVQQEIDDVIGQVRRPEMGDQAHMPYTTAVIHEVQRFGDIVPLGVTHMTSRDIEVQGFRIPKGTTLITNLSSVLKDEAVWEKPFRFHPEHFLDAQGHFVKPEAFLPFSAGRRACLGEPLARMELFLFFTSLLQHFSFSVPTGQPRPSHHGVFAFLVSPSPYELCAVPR
Experimental: This is a high throughput screening assay used for assessment of reversible inhibition of CYP2D6 activity of test compounds in human liver microsome (HLM) in early discovery stage. Table 4. Chemicals and materials used in the CYP inhibition assay
10 mM DMSO stock solutions of test compounds were diluted in DMSO to generate 2 mM intermediate stock solution. 250 nL of intermediate stock solution were transferred in duplicate into 3 separate 384 well microtitre plates (assay-ready plates). A mixture of HLM and each substrate was made up. 45 µL of HLM substrate mix was then transferred to each well of an assay ready plate and mixed. The negative (solvent) and positive control (standard inhibitor for CYP 2D6) were included in each assay ready plate. The assay ready plate was warmed to 37 °C in an incubator over 10 minutes. 5 µL pre-warmed NADPH regenerating system was added to each incubation well to start the reaction. Final incubation volume was 50 µL. The assay plate then was placed back in the 37 °C incubator. After 10-minute incubation, incubates were quenched by addition of 50 µL 100% acetonitrile containing internal standards (20 ng/mL D3-Dextrorphan). The supernatants were collected for RapidFire/MS/MS analysis.
RapidFire online solid phase extraction/sample injection system (Agilent) coupled with API4000 triple quadrupole mass spectrometer (AB Sciex) were used for sample analysis. The mobile phase composed of acetonitrile and water supplemented with 0.1% formic acid. A C4 solid phase extraction cartridge is used for sample separation. MS detection is achieved in positive ion MRM mode.
Peak areas for substrate, metabolite and internal standard are determined using the RapidFire integrator software (version 3.6.12009.12296). Peak area ratios (PAR) of metabolite and internal standard (stable-labelled metabolite) are then calculated. The measurement window for each experiment is then defined: • PAR (0% activity)= average PAR for all incubations containing concentrated inhibitor; • Par (100% activity)= average PAR for all incubations containing no inhibitor (DMSO controls); • % Activity (test inhibitor) • =[PAR(test inhibitor)-PAR(0% activity)]/[PAR(100% activity)-PAR(0% activity)]; • % Inhibition (test inhibitor)=100-% Activity (test inhibitor).

Row | SMILES | pIC50 [1] | inhibition at 10 min, 10 µM [2] [%]
1 | C[C@@H]1CN(c2ccc(C#N)c3ncccc23)C[C@H](CN2C[C@H]3CN(c4ccc5c(n4)CCNC5)CC[C@H]32)O1 (single isomer, unassigned) [Example 55] | 7.80 | 10.5
2 | C[C@@H]1CN(c2ccc(C#N)c3ncccc23)C[C@H](CN2CCN(c3cnc4c(c3)CN[C@@H]4C)CC2)O1 (single isomer, unassigned) [Example 68] | 7.80 | 6
3 | C[C@@H]1CN(c2ccc(C#N)c3ncccc23)C[C@H](CN2CCN(c3cc4c(cn3)[C@@H](C)NCC4)CC2)O1 (single isomer, unassigned) [Example 73] | 8.15 | 6
4 | C[C@@H]1CN(c2ccc(C#N)c3ncccc23)C[C@H](CN2CCN(c3cc4c(cn3)CCN[C@@H]4C)CC2)O1 (single isomer, unassigned) [Example 74] | 8.40 | 6
5 | C[C@@H]1CN(c2ccc(C#N)c3ncccc23)C[C@H](CN2CCN(c3cc4c(cn3)C[C@H](C)NC4)CC2)O1 (single isomer, unassigned) [Example 76] | 8.30 | 6
6 | C[C@@H]1CN(c2ccc(C#N)c3ncccc23)C[C@H](CN2CCN(c3ccc4c(c3)CNC4)CC2CO)O1 (stereo partly drawn) [Example 15, 5-[(2S,6R)-2-[[2-(hydroxymethyl)-4-isoindolin-5-yl-piperazin-1-yl]methyl]-6-methyl-morpholin-4-yl]quinoline-8-carbonitrile] | 7.96 | 
7 | C[C@@H]1CN(c2ccc(C#N)n3ncc(F)c23)C[C@H](CN2CCN(c3cnc4c(c3)CNC4)CC2)O1 [Example 26, 4-[(2S,6R)-2-[[4-(6,7-dihydro-5H-pyrrolo[3,4-b]pyridin-3-yl)piperazin-1-yl]methyl]-6-methyl-morpholin-4-yl]-3-fluoro-pyrazolo[1,5-a]pyridine-7-carbonitrile] | 7.31 | 
8 | CC1NCc2cc(N3CCN(C[C@H]4CN(c5ccc(C#N)c6ncccc56)C[C@@H](C)O4)CC3)ccc21 (stereo partly drawn) [Example 28, 5-[(2R,6S)-2-methyl-6-[[4-(1-methylisoindolin-5-yl)piperazin-1-yl]methyl]morpholin-4-yl]quinoline-8-carbonitrile] | 7.89 | 
9 | C[C@@H]1CN(c2ccc(C#N)c3ncccc23)C[C@H](CN2CCN(c3nc4c(s3)CNCC4)CC2)O1 [Example 31, 5-[(2R,6S)-2-methyl-6-[[4-(4,5,6,7-tetrahydrothiazolo[5,4-c]pyridin-2-yl)piperazin-1-yl]methyl]morpholin-4-yl]quinoline-8-carbonitrile] | > 8.52 | 
10 | C[C@@H]1CN(c2ccc(C#N)c3ncccc23)C[C@H](CN2CCC(Nc3ccc4c(c3)CNC4)C2)O1 (stereo partly drawn) [Example 38, 5-[(2S,6R)-2-[[3-(isoindolin-5-ylamino)pyrrolidin-1-yl]methyl]-6-methyl-morpholin-4-yl]quinoline-8-carbonitrile] | 7.30 | 
11 | C[C@@H]1CN(c2ccc(C#N)c3ncccc23)C[C@H](CNC2CN(c3cnc4c(c3)CNC4)C2)O1 [Example 43, 5-[(2S,6R)-2-[[[1-(6,7-dihydro-5H-pyrrolo[3,4-b]pyridin-3-yl)azetidin-3-yl]amino]methyl]-6-methyl-morpholin-4-yl]quinoline-8-carbonitrile] | 7.27 | 
12 | C[C@@H]1CN(c2ccc(C#N)c3ncccc23)C[C@H](CN2CC3(C2)CN(c2ncc4c(n2)CCNC4)CCO3)O1 [Example 51, 5-[(2R,6S)-2-methyl-6-[[8-(5,6,7,8-tetrahydropyrido[4,3-d]pyrimidin-2-yl)-5-oxa-2,8-diazaspiro[3.5]nonan-2-yl]methyl]morpholin-4-yl]quinoline-8-carbonitrile] | 8.30 | 
13 | C[C@@H]1CN(c2ccc(C#N)c3ncccc23)C[C@H](CN2CCN(c3ccc4c(c3)C(O)CN(C)C4)CC2)O1 (stereo partly drawn) [Example 59, 5-[(2S,6R)-2-[[4-(4-hydroxy-2-methyl-3,4-dihydro-1H-isoquinolin-6-yl)piperazin-1-yl]methyl]-6-methyl-morpholin-4-yl]quinoline-8-carbonitrile] | 7.96 | 
14 | Cc1nc2c(nc1N1CCN(C[C@H]3CN(c4ccc(C#N)c5ncccc45)C[C@@H](C)O3)CC1)CCNC2 [Example 60, 5-[(2R,6S)-2-methyl-6-[[4-(3-methyl-5,6,7,8-tetrahydropyrido[3,4-b]pyrazin-2-yl)piperazin-1-yl]methyl]morpholin-4-yl]quinoline-8-carbonitrile] | 7.85 | 
15 | C[C@@H]1CN(c2ccc(C#N)c3ncccc23)C[C@H](CN2CCN(c3ncnc4c3CNCC4)CC2)O1 [Example 61, 5-[(2R,6S)-2-methyl-6-[[4-(5,6,7,8-tetrahydropyrido[4,3-d]pyrimidin-4-yl)piperazin-1-yl]methyl]morpholin-4-yl]quinoline-8-carbonitrile] | 8.00 | 
16 | C[C@@H]1CN(c2ccc(C#N)c3ncccc23)C[C@H](CN2CCN(c3nccc4c3CCNC4)CC2)O1 [Example 62, 5-[(2R,6S)-2-methyl-6-[[4-(5,6,7,8-tetrahydro-2,6-naphthyridin-1-yl)piperazin-1-yl]methyl]morpholin-4-yl]quinoline-8-carbonitrile] | 7.85 | 
17 | COc1ccc(N2CCN(C[C@H]3CN(c4ccc(C#N)c5ncccc45)C[C@@H](C)O3)CC2)cc1 [Example R1, 5-[(2S,6R)-2-[[4-(4-methoxyphenyl)piperazin-1-yl]methyl]-6-methyl-morpholin-4-yl]quinoline-8-carbonitrile, reference compound] | 6.85 | 
18 | C[C@@H]1CN(c2ccc(C#N)c3ncccc23)C[C@H](CN2CCN(c3ccc(Cl)cc3)CC2)O1 [Example R2, 5-[(2S,6R)-2-[[4-(4-chlorophenyl)piperazin-1-yl]methyl]-6-methyl-morpholin-4-yl]quinoline-8-carbonitrile, reference compound] | 6.47 | 
